# Measured values: paper PMC12213745, “Compounds from Cyclocarya paliurus leaves inhibit binary division of methicillin-resistant Staphylococcus aureus by disrupting FtsZ dynamic” (Frontiers in Microbiology, 2025)
# Where “and” joins values, the source holds several entries; their conditions need not be identical. Equal values may be shown once. Read-outs that look alike come from different tables or passages of the source.
# Columns and labels:
# SaFtsZ [1] = target: T1, SaFtsZ (Staphylococcus aureus, UniProt P0A031); test: FtsZ polymerization assay (A360); type: biochemical; details: 10 μM SaFtsZ; 0.25 × and 0.5 × MIC; vs DMSO control
# T1 construct: purchased Cytoskeleton, Inc. FTZ02
# T1 sequence (P0A031 1-390): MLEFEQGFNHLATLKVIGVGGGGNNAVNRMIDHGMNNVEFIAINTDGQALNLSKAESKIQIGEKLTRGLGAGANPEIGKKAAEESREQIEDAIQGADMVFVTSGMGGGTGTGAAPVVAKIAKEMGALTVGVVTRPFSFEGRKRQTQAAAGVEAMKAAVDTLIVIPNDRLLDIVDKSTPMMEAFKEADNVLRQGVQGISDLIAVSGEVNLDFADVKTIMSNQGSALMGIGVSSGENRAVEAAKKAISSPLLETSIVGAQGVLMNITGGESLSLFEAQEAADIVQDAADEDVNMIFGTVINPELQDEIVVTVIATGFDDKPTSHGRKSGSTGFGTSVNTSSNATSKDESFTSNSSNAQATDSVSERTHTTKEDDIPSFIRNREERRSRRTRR
# Method: To assess the effects of AA, MA, and UA on FtsZ polymerization, an in vitro FtsZ polymerization assay was performed. […] Polymerization was initiated by the addition of polymerization buffer components, bringing the final concentrations to 250 mM KCl and 5 mM MgCl2 Absorbance at 360 nm (A360) was monitored for 5 min to establish a stable baseline. GTP was then added to a final concentration of 1 mM. Polymerization was tracked by measuring A360 for 30 min using a microplate reader (SpectraMax i3x, Molecular Devices, CA, USA).
# To determine whether the disruptions of Z-ring were due to direct effects on FtsZ polymerization, we performed in vitro polymerization assays. FtsZ polymerization was assessed by monitoring the time-dependent increase in A360 upon induction using a microplate reader. Briefly, 10 μM SaFtsZ was pre-incubated with AA, MA, UA or DMSO, and polymerization was initiated by adding K^+, Mg^2+, and GTP.
# SaFtsZ [2] = target: T1, SaFtsZ; test: Surface plasmon resonance analysis; type: binding, S. aureus; details: SPR, immobilized SaFtsZ, 25°C, steady-state
# Method: SPR analysis was performed using a Biacore X100 system (Cytiva, USA) equipped with a CM5 sensor chip at 25°C. SaFtsZ protein was immobilized onto the chip surface via standard amine coupling. Briefly, flow cells 1 (Fc1) and 2 (Fc2) were activated with a 1:1 mixture of 0.4 M EDC and 0.1 M NHS for 7 min. The SaFtsZ protein was diluted to 40 μg/mL in 0.1 M sodium acetate buffer (pH 4.0) and immobilized onto Fc2. The response units (RU) reaching an immobilization level of approximately 4693.2. Unreacted sites in both flow cells were blocked with ethanolamine for 7 min. Subsequently, analyte solutions containing test compounds at varying concentrations were injected over both flow cells, and binding responses were monitored in real time. Data analysis was performed using Biacore Evaluation Software v2.0.2.
# We first performed SPR spectroscopy to experimentally measure the binding affinities of AA, MA, and UA for immobilized SaFtsZ protein.
# MRSA-4 = test: TEM analysis of septum formation; type: cell-based, Methicillin-resistant S. aureus; details: 1 × MIC, 4 h
# Method: MRSA-4 was cultured in MHB to mid-log phase as described above. The cultures were then treated with AA, MA, or UA (at 1 × MIC) or with an equal volume of PBS (negative control) for 4 h at 37°C. After treatment, bacterial suspensions were collected by centrifugation at 13,000 × g for 3 min, and the resulting pellets were washed with PBS. Pellets were fixed in 2.5% glutaraldehyde prepared in 0.1 M cacodylate buffer (pH 7.2). Following fixation, samples were dehydrated in a graded ethanol series (30 to 100%), with 100% ethanol replaced three times. Samples were infiltrated with acetone/Epon-812 resin mixtures at ratios of 3:1, 1:1, and 1:3, then embedded in pure Epon-812 resin. Ultrathin sections (60–90 nm) were cut and placed on copper grids. The sections were stained with saturated uranyl acetate for 10–15 min, followed by lead citrate for 1–2 min. Structural and morphological changes in the bacterial cells were observed using a JEOL JEM-1400FLASH transmission electron microscope (JEOL, Japan).
# We first evaluated the impact of AA, MA, and UA on septum formation in MRSA-4 cells using TEM. MRSA-4 cultures were treated with AA, MA, or UA at 1 × MIC for 4 h, with PBS-treated cells serving as the control. […] These abnormalities imply that AA, MA, and UA disrupt the septum formation process, which is essential for successful cell division.
# [3] = read-out: equilibrium dissociation constant (Kd)
SMILES,effect on FtsZ polymerization (A360) (SaFtsZ [1]),Kd (SaFtsZ [2]; equilibrium dissociation constant (Kd)) [nM],septum formation (TEM) (MRSA-4),Kd (SaFtsZ [2]; [3])
"C[C@H]1[C@H](C)CC[C@]2(C(=O)O)CC[C@]3(C)C(=CC[C@@H]4[C@@]5(C)C[C@@H](O)[C@H](O)[C@@](C)(CO)[C@@H]5CC[C@]43C)[C@H]12 [AA, asiatic acid]",significantly enhanced FtsZ polymerization,2400,"incomplete, mislocalized, or absent septa",–
"C[C@H]1[C@H](C)CC[C@]2(C(=O)O)CC[C@]3(C)C(=CC[C@@H]4[C@@]5(C)CC[C@H](O)C(C)(C)[C@@H]5CC[C@]43C)[C@H]12 [UA, ursolic acid]",markedly inhibited FtsZ polymerization,–,"incomplete, mislocalized, or absent septa",700 nM and 663 nM
"CC1(C)CC[C@]2(C(=O)O)CC[C@]3(C)C(=CC[C@@H]4[C@@]5(C)C[C@@H](O)[C@H](O)C(C)(C)[C@@H]5CC[C@]43C)[C@@H]2C1 [MA, maslinic acid]",markedly inhibited FtsZ polymerization,–,"incomplete, mislocalized, or absent septa",9800 nM and 9760 nM
